Data reported in ChEMBL document CHEMBL4680149, “Biological evaluation and chemoproteomics reveal potential antibacterial targets of a cajaninstilbene-acid analogue” (Eur J Med Chem, 2020).
Values after ≈ are worked out from the molar mass of the structure shown. Active and inactive are the calls of the source. The rule behind the calls is not given here.

What was measured:
RAW264.7 = experiment: Cytotoxicity against mouse RAW264.7 cells assessed as reduction in cell viability incubated for 48 hrs by MTT assay; type: cell-based; settings: RAW264.7, 48 h
Staphylococcus aureus [1] = experiment: Antibacterial activity against methicillin resistant Staphylococcus aureus ATCC 43300 persisters assessed as eradication of colony formation at 2X MIC incubated for 4 hrs by colony counting method; type: functional, organism-based
Staphylococcus aureus [2] = experiment: Binding affinity to modA in Staphylococcus aureus ATCC 25923 assessed as protein labeling at 5 uM incubated for 1 hr followed by UV irradiation for 20 mins by pull down based in-gel fluorescence scanning analysis; settings: time 80.0 min
Staphylococcus aureus [3] = experiment: (§1) Binding affinity to HsIU/ClpY in Staphylococcus aureus ATCC 25923 assessed as protein labeling at 5 uM incubated for 1 hr followed by UV irradiation for 20 mins by pull down based in-gel fluorescence scanning analysis; settings: time 80.0 min
Staphylococcus aureus [4] = experiment: Binding affinity to PgsA in Staphylococcus aureus ATCC 25923 assessed as protein labeling at 5 uM incubated for 1 hr followed by UV irradiation for 20 mins by pull down based in-gel fluorescence scanning analysis; settings: time 80.0 min
Staphylococcus aureus [5] = experiment: Binding affinity to moaB in Staphylococcus aureus ATCC 25923 assessed as protein labeling at 5 uM incubated for 1 hr followed by UV irradiation for 20 mins by pull down based in-gel fluorescence scanning analysis; settings: time 80.0 min
Staphylococcus aureus [6] = experiment: as §1, with “hr in presence of (E)-6-(2-fluorostyryl)-2,4-dihydroxy-3-(3-methylbut-2-enyl)benzoic acid” for “hr”; settings: time 80.0 min
Staphylococcus aureus [7] = experiment: (§2) Binding affinity to CshA in methicillin resistant Staphylococcus aureus ATCC 43300 assessed as protein labeling at 5 uM incubated for 1 hr in presence of (E)-6-(2-fluorostyryl)-2,4-dihydroxy-3-(3-methylbut-2-enyl)benzoic acid followed by UV irradiation for 20 mins by pull down based in-gel fluorescence scanning analysis; settings: time 80.0 min
Staphylococcus aureus [8] = experiment: Binding affinity to YidC in Staphylococcus aureus ATCC 25923 assessed as protein labeling at 5 uM incubated for 1 hr in presence of (E)-6-(2-fluorostyryl)-2,4-dihydroxy-3-(3-methylbut-2-enyl)benzoic acid followed by UV irradiation for 20 mins by pull down based in-gel fluorescence scanning analysis; settings: time 80.0 min
Staphylococcus aureus [9] = experiment: Binding affinity to rpsH in Staphylococcus aureus ATCC 25923 assessed as protein labeling at 5 uM incubated for 1 hr in presence of (E)-6-(2-fluorostyryl)-2,4-dihydroxy-3-(3-methylbut-2-enyl)benzoic acid followed by UV irradiation for 20 mins by pull down based in-gel fluorescence scanning analysis; settings: time 80.0 min
Staphylococcus aureus [10] = experiment: Binding affinity to moaB in Staphylococcus aureus ATCC 25923 assessed as protein labeling at 5 uM incubated for 1 hr in presence of (E)-6-(2-fluorostyryl)-2,4-dihydroxy-3-(3-methylbut-2-enyl)benzoic acid followed by UV irradiation for 20 mins by pull down based in-gel fluorescence scanning analysis; settings: time 80.0 min
Staphylococcus aureus [11] = experiment: Bacteriostatic activity against Staphylococcus aureus ATCC 25923 assessed as reduction in bacterial growth at 4 ug/ml incubated for 16 hrs by Kirby-Bauer test method; type: functional, organism-based; settings: dose 4.0 µg/ml
Staphylococcus aureus [12] = experiment: Binding affinity to CshA in Staphylococcus aureus ATCC 25923 assessed as protein labeling at 5 uM incubated for 1 hr followed by UV irradiation for 20 mins by pull down based in-gel fluorescence scanning analysis; settings: time 80.0 min
Staphylococcus aureus [13] = experiment: Binding affinity to rpsH in methicillin resistant Staphylococcus aureus ATCC 43300 assessed as protein labeling at 5 uM incubated for 1 hr followed by UV irradiation for 20 mins by pull down based in-gel fluorescence scanning analysis; settings: time 80.0 min
Staphylococcus aureus [14] = experiment: Binding affinity to modA in Staphylococcus aureus ATCC 25923 assessed as protein labeling at 5 uM incubated for 1 hr in presence of (E)-6-(2-fluorostyryl)-2,4-dihydroxy-3-(3-methylbut-2-enyl)benzoic acid followed by UV irradiation for 20 mins by pull down based in-gel fluorescence scanning analysis; settings: time 80.0 min
Staphylococcus aureus [15] = experiment: Binding affinity to PgsA in Staphylococcus aureus ATCC 25923 assessed as protein labeling at 5 uM incubated for 1 hr in presence of (E)-6-(2-fluorostyryl)-2,4-dihydroxy-3-(3-methylbut-2-enyl)benzoic acid followed by UV irradiation for 20 mins by pull down based in-gel fluorescence scanning analysis; settings: time 80.0 min
Staphylococcus aureus [16] = experiment: as §2, with “moaB” for “CshA”; settings: time 80.0 min
Staphylococcus aureus [17] = experiment: Binding affinity to His-tagged recombinant Staphylococcus aureus PgsA expressed in Escherichia coli Rosetta DE3 at 5 uM incubated for 1 hr in presence of (E)-6-(2-fluorostyryl)-2,4-dihydroxy-3-(3-methylbut-2-enyl)benzoic acid followed by UV irradiation for 20 mins by in-gel fluorescence scanning analysis; settings: time 80.0 min
Staphylococcus aureus [18] = experiment: Binding affinity to HsIU/ClpY in methicillin resistant Staphylococcus aureus ATCC 43300 assessed as protein labeling at 5 uM incubated for 1 hr followed by UV irradiation for 20 mins by pull down based in-gel fluorescence scanning analysis; settings: time 80.0 min
Staphylococcus aureus [19] = experiment: Binding affinity to YidC in methicillin resistant Staphylococcus aureus ATCC 43300 assessed as protein labeling at 5 uM incubated for 1 hr followed by UV irradiation for 20 mins by pull down based in-gel fluorescence scanning analysis; settings: time 80.0 min
Staphylococcus aureus [20] = experiment: Binding affinity to CshA in methicillin resistant Staphylococcus aureus ATCC 43300 assessed as protein labeling at 5 uM incubated for 1 hr followed by UV irradiation for 20 mins by pull down based in-gel fluorescence scanning analysis; settings: time 80.0 min
Staphylococcus aureus [21] = experiment: Binding affinity to modA in methicillin resistant Staphylococcus aureus ATCC 43300 assessed as protein labeling at 5 uM incubated for 1 hr followed by UV irradiation for 20 mins by pull down based in-gel fluorescence scanning analysis; settings: time 80.0 min
Staphylococcus aureus [22] = experiment: as §2, with “YidC” for “CshA”; settings: time 80.0 min
Staphylococcus aureus [23] = experiment: Antibacterial activity against Staphylococcus aureus ATCC 25923 assessed as reduction in bacterial growth incubated for 16 hrs by broth microdilution method; type: functional
Staphylococcus aureus [24] = experiment: as §2, with “modA” for “CshA”; settings: time 80.0 min
Staphylococcus aureus [25] = experiment: Binding affinity to CshA in Staphylococcus aureus ATCC 25923 assessed as protein labeling at 5 uM incubated for 1 hr in presence of (E)-6-(2-fluorostyryl)-2,4-dihydroxy-3-(3-methylbut-2-enyl)benzoic acid followed by UV irradiation for 20 mins by pull down based in-gel fluorescence scanning analysis; settings: time 80.0 min
Staphylococcus aureus [26] = experiment: Binding affinity to moaB in methicillin resistant Staphylococcus aureus ATCC 43300 assessed as protein labeling at 5 uM incubated for 1 hr followed by UV irradiation for 20 mins by pull down based in-gel fluorescence scanning analysis; settings: time 80.0 min
Staphylococcus aureus [27] = experiment: as §2, with “HsIU/ClpY” for “CshA”; settings: time 80.0 min
Staphylococcus aureus [28] = experiment: as §2, with “PgsA” for “CshA”; settings: time 80.0 min
Staphylococcus aureus [29] = experiment: Binding affinity to rpsH in Staphylococcus aureus ATCC 25923 assessed as protein labeling at 5 uM incubated for 1 hr followed by UV irradiation for 20 mins by pull down based in-gel fluorescence scanning analysis; settings: time 80.0 min
Staphylococcus aureus [30] = experiment: Binding affinity to YidC in Staphylococcus aureus ATCC 25923 assessed as protein labeling at 5 uM incubated for 1 hr followed by UV irradiation for 20 mins by pull down based in-gel fluorescence scanning analysis; settings: time 80.0 min
Staphylococcus aureus [31] = experiment: Binding affinity to PgsA in methicillin resistant Staphylococcus aureus ATCC 43300 assessed as protein labeling at 5 uM incubated for 1 hr followed by UV irradiation for 20 mins by pull down based in-gel fluorescence scanning analysis; settings: time 80.0 min
Staphylococcus aureus [32] = experiment: as §2, with “rpsH” for “CshA”; settings: time 80.0 min
Staphylococcus aureus [33] = experiment: Antibacterial activity against methicillin resistant Staphylococcus aureus ATCC 43300 persisters assessed as reduction in colony formation at 4 ug/ml incubated for 8 hrs by colony counting method; type: functional, organism-based; settings: dose 4.0 µg/ml
Staphylococcus aureus [34] = experiment: Bacteriostatic activity against Staphylococcus aureus ATCC 25923 assessed as reduction in bacterial growth at 128 ug/ml incubated for 16 hrs by Kirby-Bauer test method; type: functional, organism-based; settings: dose 128.0 µg/ml
Staphylococcus aureus [35] = experiment: Antibacterial activity against methicillin resistant Staphylococcus aureus ATCC 43300 persisters assessed as reduction in colony formation at 40 ug/ml incubated for 8 hrs by colony counting method; type: functional, organism-based; settings: dose 40.0 µg/ml
Staphylococcus aureus [36] = experiment: Resistance index, ratio of MIC for antibacterial activity against Staphylococcus aureus ATCC 25923 measured after 60 days of serial passage to MIC for antibacterial activity against Staphylococcus aureus ATCC25923 measured after 16 hrs; type: functional
Staphylococcus aureus [37] = experiment: Antibacterial activity against methicillin resistant Staphylococcus aureus ATCC 43300 persisters assessed as reduction in colony formation at 40 ug/ml incubated for 8 hrs in presence of 50 ug/ml Ca2+ by colony counting method; type: functional, organism-based; settings: dose 40.0 µg/ml

SMILES | Activity (Staphylococcus aureus [2]) | Activity (Staphylococcus aureus [3]) | Activity (Staphylococcus aureus [4]) | Activity (Staphylococcus aureus [5]) | Activity (Staphylococcus aureus [12]) | Activity (Staphylococcus aureus [13]) | Activity (Staphylococcus aureus [18]) | Activity (Staphylococcus aureus [19]) | Activity (Staphylococcus aureus [20]) | Activity (Staphylococcus aureus [21]) | Activity (Staphylococcus aureus [26]) | Activity (Staphylococcus aureus [29]) | Activity (Staphylococcus aureus [30]) | Activity (Staphylococcus aureus [31]) | also measured
COc1cc(/C=C/c2ccc(C(F)(F)F)cc2)c(C(=O)O)c(O)c1CC=C(C)C | – | – | – | – | – | – | – | – | – | – | – | – | – | – | IC50 (RAW264.7): 50.6 µM; Activity (Staphylococcus aureus [1]): Active
C#CCCC1(CCOc2ccc(/C=C/c3cc(OC)c(CC=C(C)C)c(O)c3C(=O)O)c(F)c2)N=N1 | Active | Active | Active | Active | Active | Active | Active | Active | Active | Active | Active | Active | Active | Active | Activity (Staphylococcus aureus [6]): inactive; Activity (Staphylococcus aureus [7]): inactive; Activity (Staphylococcus aureus [8]): inactive; Activity (Staphylococcus aureus [9]): inactive; Activity (Staphylococcus aureus [10]): inactive; Activity (Staphylococcus aureus [11]): Active; Activity (Staphylococcus aureus [14]): inactive; Activity (Staphylococcus aureus [15]): inactive; Activity (Staphylococcus aureus [16]): inactive; Activity (Staphylococcus aureus [17]): inactive; Activity (Staphylococcus aureus [22]): inactive; MIC (Staphylococcus aureus [23]): 8 µg/mL (≈ 16.2 µM); Activity (Staphylococcus aureus [24]): inactive; Activity (Staphylococcus aureus [25]): inactive; Activity (Staphylococcus aureus [27]): inactive; Activity (Staphylococcus aureus [28]): inactive; Activity (Staphylococcus aureus [32]): inactive
CO[C@H]1/C=C/O[C@@]2(C)Oc3c(C)c(O)c4c(O)c(c(/C=N/N5CCN(C)CC5)c(O)c4c3C2=O)NC(=O)/C(C)=C\C=C\[C@H](C)[C@H](O)[C@@H](C)[C@@H](O)[C@@H](C)[C@H](OC(C)=O)[C@@H]1C | – | – | – | – | – | – | – | – | – | – | – | – | – | – | Activity (Staphylococcus aureus [33]): Active
C#CCCC1(CCOc2ccccc2)N=N1 | inactive | inactive | inactive | inactive | inactive | inactive | inactive | inactive | inactive | inactive | inactive | inactive | inactive | inactive | Activity (Staphylococcus aureus [34]): inactive
O=C(O)c1cn(C2CC2)c2cc(N3CCNCC3)c(F)cc2c1=O [CIPROFLOXACIN] | – | – | – | – | – | – | – | – | – | – | – | – | – | – | Activity (Staphylococcus aureus [35]): Active; Ratio (Staphylococcus aureus [36]): 50
CCCCCCCCCC(=O)N[C@@H](Cc1c[nH]c2ccccc12)C(=O)N[C@H](CC(N)=O)C(=O)N[C@@H](CC(=O)O)C(=O)N[C@@H]1C(=O)NCC(=O)N[C@@H](CCCN)C(=O)N[C@@H](CC(=O)O)C(=O)N[C@H](C)C(=O)N[C@@H](CC(=O)O)C(=O)NCC(=O)N[C@H](CO)C(=O)N[C@@H]([C@H](C)CC(=O)O)C(=O)N[C@@H](CC(=O)c2ccccc2N)C(=O)O[C@@H]1C | – | – | – | – | – | – | – | – | – | – | – | – | – | – | Activity (Staphylococcus aureus [37]): Active
